Source: US5990078A, “Means of increasing estrogen receptor levels in neural tissue” (The Trustees of Columbia University in the City of New York, priority 1996, dated 1999)
Entries after “also recorded” stand apart in the source; their conditions may differ.

Tests used:
estrogen receptor mRNA [1] = test: Semiquantitative RT-PCR of estrogen receptor mRNA in cortical and basal forebrain explant cultures; format: cell-based, rat; settings: cortical and basal forebrain explants, hrNGF 100 ng/mL
Text: Time-pregnant rats (Sprague-Dawley) were obtained from Zivic (Miller, Pa.). Organotypic explant cultures were obtained from postnatal day (P) 2 rat brains (P1=day of birth) of both sexes. Brains were slice coronally into 360-μm thick sections using a brain slicer (Toran-Allerand, 1990). A total of four coronal sections from the periseptal region were isolated and dissected into four pairs of hemicoronal cortical [cingulate and neocortex, FIG. 6(a)] and basal forebrain [septum, nuclei of the diagonal band of Broca and ventral pallidum, FIG. 6(b)] sections. Hemicoronal explants were maintained in roller tube assemblies (Caeser et al., 1989; Gahwiler et al., 1991), on collagen coated coverslips for 8 days in vitro, in serum supplemented (25% gelded horse serum, JRH), steroid deficient and phenol red free medium containing 50% basal medium (Eagle's), 25% Hank's balanced salt solution (HBSS), and 0.65% glucose. […] Cultures were fed 3 times a week.
Estrogen receptor mRNA expression was assessed by semiquantitative RT-CPR, using RNA isolated from pooled cortical (two explants pooled/sample) and basal forebrain (four explants pooled/sample) cultures. PCR primers (gift of B. Schachter, Mount Sinai Hospital) were designed to amplify a 300 base pair (bp) sequence from the region coding for the ligand binding domain (Sohrabji et al., 1994b). […]

estrogen receptor mRNA [2] = test: Isotopic in situ hybridization of estrogen receptor mRNA in cortical explant cultures; format: cell-based, rat; settings: cortical explants, hrNGF 100 ng/mL
Text: (§1) Time-pregnant rats (Sprague-Dawley) were obtained from Zivic (Miller, Pa.). Organotypic explant cultures were obtained from postnatal day (P) 2 rat brains (P1=day of birth) of both sexes. Brains were slice coronally into 360-μm thick sections using a brain slicer (Toran-Allerand, 1990). A total of four coronal sections from the periseptal region were isolated and dissected into four pairs of hemicoronal cortical [cingulate and neocortex, FIG. 6(a)] and basal forebrain [septum, nuclei of the diagonal band of Broca and ventral pallidum, FIG. 6(b)] sections. […]
Estrogen receptor mRNA was detected in cerebral cortical cultures in using […] oligonucleotide probes complementary to a sequence within rat estrogen receptor mRNA coding for hormone binding domain (Miranda et al., 1993b, 1994; Miranda and Toran-Allerand, 1992; Toran-Allerand et al., 1992b). […] Isotopically (^35 S)-labeled hybrids were detected in whole explant cultures by desiccating the cultures and apposing them to autoradiographic film (Kodak X-omat). The intensity of mRNA expression was quantified as the density of film exposure over the explant divided by the density over background using a standard morphometrics package (Jandel Scientific).

estrogen receptor = target: T1, estrogen receptor (Rattus norvegicus, UniProt P06211); test: Modified nuclear binding assay, basal forebrain explant cultures; format: cell-based; set-up: endogenous in cells; settings: P2 rat basal forebrain explants, 8 days in vitro, hrNGF 100 ng/mL
T1 sequence (P06211 1-600): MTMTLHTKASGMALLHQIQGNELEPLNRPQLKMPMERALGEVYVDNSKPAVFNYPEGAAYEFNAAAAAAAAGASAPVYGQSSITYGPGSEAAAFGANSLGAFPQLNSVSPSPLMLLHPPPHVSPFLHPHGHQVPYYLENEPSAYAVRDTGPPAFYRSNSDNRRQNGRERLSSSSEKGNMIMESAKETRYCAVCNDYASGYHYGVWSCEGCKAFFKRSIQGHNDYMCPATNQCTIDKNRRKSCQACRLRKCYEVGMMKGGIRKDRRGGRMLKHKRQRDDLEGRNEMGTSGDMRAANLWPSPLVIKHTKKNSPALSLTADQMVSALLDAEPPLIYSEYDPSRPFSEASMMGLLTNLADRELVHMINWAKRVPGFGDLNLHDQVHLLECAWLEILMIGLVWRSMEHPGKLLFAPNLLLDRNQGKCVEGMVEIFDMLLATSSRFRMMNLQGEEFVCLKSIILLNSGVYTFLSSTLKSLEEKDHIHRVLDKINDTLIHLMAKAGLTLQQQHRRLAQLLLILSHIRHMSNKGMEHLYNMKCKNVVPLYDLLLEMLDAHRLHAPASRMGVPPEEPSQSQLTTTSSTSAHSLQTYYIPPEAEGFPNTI
Text: as §1
Nuclear receptor binding sites were identified using previously published protocols (Sohrabji et al., 1994a,b) and were standardized for this experiment using both MCF-7 cells and hypothalamic tissue. […] Radioactivity was eluted from nuclear pellets with 95% ethanol (moxestrol is completely soluble in >50% ethanol) and the radioactivity counted in a liquid scintillation counter. […] Specific binding was determined as the difference between total binding and non-specific binding (in the presence of an unlabeled competing ligand) and the data expressed as femtomoles of specifically bound [^3 H] -moxestrol/mg DNA. […]

p75^NGFR mRNA [3] = test: Northern blot analysis of p75NGFR mRNA in PC12 cells; format: cell-based, rat; settings: NGF-treated PC12 cells
Procedure: PC12 cells were cultured on collagen-coated coverslips or tissue culture dishes in phenol red-free RPMI 1640 (Gibco BRL) nutrient medium supplemented with 10% (heat-inactivated) gelded (steroid-deficient) horse serum (JRH Biological), according to a modification of standard procedures. In these experiments, fetal calf serum, which contains physiologic levels of estrogen, (32 pg/ml) was not used.
Total RNA, prepared by a modification of the Chomczynski and Sacchi method, was size-fractionated (10-20 μg/lane) on a 1.2% agarose-18% formaldehyde gel and capillary-transferred to nylon membrane (Hybond-N; Amersham). Filters were prehybridized (4-18 h) and hybridized (36-40 h) at 42° C. in 50% Formamide, 3× SSC, 0.1M Tris, 5× Denhardt's and 10% Dextran Sulfate. Probes were labeled with [α-^32 P]-dCTP by the random priming procedure (Random Priming kit, Boehringer Mannheim). trkA mRNA was identified by hybridization with pDM97, a 450 bp trkA-specific probe corresponding to the extracellular and transmembrane domains of the trkA gene [67; gift of L. F. Parada, NCI-FCRDC]. p75^NGFR was probed by hybridization with p5b, a 2 Kb probe corresponding to the extracellular domain of the p75^NGFR gene. Blots were washed first in 0.2×SSC and 0.5% SDS briefly at room temperature and then for 2 h at 60° C., with frequent changes of wash buffer. Filters were then exposed to film (Kodak X-Omat) between intensifying screens and stored at -70° C. for 1-4 days before developing.
Using a standard densitometry package (Jandel Scientific), optical density measurements were obtained from X-ray film. trkA and p75^NGFR transcript densities were normalized to an internal control to account for variation in the amount of RNA loaded.
Total RNA was analyzed by Northern blot analyses, using ^32 P-labeled cDNA probes for trkA and p75^NGFR.

PC12 cells = test: Morphology / neurite differentiation of PC12 cells; format: cell-based, rat; settings: estrogen exposure
ERKs 1 and 2 [4] = test: Tyrosine phosphorylation of ERKs 1 and 2 in cerebral cortical explants; format: cell-based; settings: P2 cortical explants
Procedure: (§2) Estrogen and the neurotrophins have important roles in the developing and adult central nervous system (CNS). […] The hypothesis that estrogen/neurotrophin receptor co-expression leads to reciprocal regulation at the level of signal transduction, through cross-coupling of converging estrogen and neurotrophin signaling pathways whose end-points in the nucleus may be the very same genes was tested. Postnatal day 2 cerebral cortex was maintained as organotypic explants in roller tube culture for 7 days.

ERKs = test: In-gel kinase assay of ERKs with MBP as substrate, cortical explants; format: cell-based
Procedure: as §2

trk receptors = test: Tyrosine phosphorylation of the trk receptors, cortical explants; format: cell-based
Procedure: as §2

ERKs 1 and 2 [5] = test: ERK activation in PC12-E2 cells; format: cell-based
Text: (§3) It has been previously reported that wild-type, differentiated PC12 pheochromocytoma cells express very low levels of estrogen receptors. Here it is reported that a PC12 cell variant, PC12-E2 (Wu, Bradshaw, J. Cell Physiol. 164:1995), is estrogen responsive and expresses high estrogen receptor level (≈50% of the levels observed in estrogen receptor over-expressing MCF-7 cells). Moreover, although tyrosine phosphorylation of the estrogen receptor appeared to be expressed constitutively, these cells responded to added estrogen. PC12-E2 responsiveness to estrogen was determined morphologically and by measuring estradiol-induced ERK activation. […] Preliminary co-precipitation experiments show an association between src and estrogen receptor, src with MEK (MAP Kinase/ERK-activating Kinase), and MEK with B-raf, MEK, which phosphorylates the ERKs on tyrosine residues, is known to exist as a complex consisting of at least hsp90 and B-raf.

ERK = ERK stimulation in wild-type, differentiated PC12 cells; format: cell-based
PC12-E2 cells = test: Morphological study of neurite growth in PC12-E2 cells; format: cell-based
Text: as §3

trkA mRNA = settings: adult female rat DRG neurons in vivo [90]; listed as estrogen; cited from earlier work
p75^NGFR mRNA [6] = settings: adult female rat DRG neurons in vivo [90]; cited from earlier work

Row | Density of estrogen binding sites (estrogen receptor) | Compound | Estrogen receptor mRNA (normalized to cyclophilin mRNA) vs control (estrogen receptor mRNA [1]) | Estrogen receptor mRNA, density of hybridization signal (estrogen receptor mRNA [2]) | p75NGFR mRNA level (p75^NGFR mRNA [3]; 1 day after estrogen treatment) | p75NGFR mRNA level (p75^NGFR mRNA [3]; 3 days of estrogen exposure) | p75NGFR mRNA level (p75^NGFR mRNA [3]; 3 days of estrogen exposure, 4320 min) | p75NGFR mRNA level (p75^NGFR mRNA [3]; 7 days of estrogen treatment) | Effect on morphology / neurite differentiation (PC12 cells) | Persistence of tyrosine phosphorylation of the ERKs (ERKs 1 and 2 [4]) | Time of maximal tyrosine phosphorylation of the ERKs (ERKs 1 and 2 [4]) | Onset of tyrosine phosphorylation of the ERKs (ERKs 1 and 2 [4]; 24 hrs estrogen and neurotrophin deprivation) | Activity of phosphorylated ERKs in phosphorylating MBP vs untreated controls (ERKs) | Tyrosine phosphorylation of the trk receptors (trk receptors) | Time to tyrosine phosphorylation of ERKs 1 and 2 (ERKs 1 and 2 [5]) | Estradiol-induced ERK stimulation (ERK) | Neurite outgrowth (PC12-E2 cells) | Increase in trkA mRNA (trkA mRNA) | p75NGFR mRNA (p75^NGFR mRNA [6])
1 | did not significantly alter and not | hrNGF: human recombinant NGF (gift of Louis Burton, Genetech) | no different; also recorded: did not lead to an alteration | No alterations; also recorded: did not lead to an alteration | – | – | – | – | – | – | – | – | – | – | – | – | – | – | –
2 | – | C[C@]12CC[C@@H]3c4ccc(O)cc4CC[C@H]3[C@@H]1CC[C@@H]2O [estradiol, 17-β estradiol] | – | – | below basal levels | decreased by half | approximately 50 % of baseline | indistinguishable from basal levels; also recorded: no different from basal levels | no readily visible effects; also recorded: did not appear to influence visibly | at least 4 hrs. | 30 min | ≤ 5 min | much more active | induced tyrosine phosphorylation | ≤ 15 min | no estradiol-induced ERK stimulation was observed | little effect | two to three-fold | transient decrease
